Our source for the Kd values is ChEMBL document CHEMBL1150977, “A quantitative analysis of kinase inhibitor selectivity” (Nat Biotechnol, 2008).

In test [1] the target is TGF-beta receptor type-2 (Homo sapiens, UniProt P37173).
The target of test [2] is Calcium/calmodulin-dependent protein kinase type II subunit gamma (Homo sapiens, UniProt Q13555).
Test [3] addresses Mitogen-activated protein kinase 8 (Homo sapiens, UniProt P45983).
For test [4], the target named is T1, Serine/threonine-protein kinase RIO3 (Homo sapiens, UniProt O14730).
T1 sequence (O14730 whole entry): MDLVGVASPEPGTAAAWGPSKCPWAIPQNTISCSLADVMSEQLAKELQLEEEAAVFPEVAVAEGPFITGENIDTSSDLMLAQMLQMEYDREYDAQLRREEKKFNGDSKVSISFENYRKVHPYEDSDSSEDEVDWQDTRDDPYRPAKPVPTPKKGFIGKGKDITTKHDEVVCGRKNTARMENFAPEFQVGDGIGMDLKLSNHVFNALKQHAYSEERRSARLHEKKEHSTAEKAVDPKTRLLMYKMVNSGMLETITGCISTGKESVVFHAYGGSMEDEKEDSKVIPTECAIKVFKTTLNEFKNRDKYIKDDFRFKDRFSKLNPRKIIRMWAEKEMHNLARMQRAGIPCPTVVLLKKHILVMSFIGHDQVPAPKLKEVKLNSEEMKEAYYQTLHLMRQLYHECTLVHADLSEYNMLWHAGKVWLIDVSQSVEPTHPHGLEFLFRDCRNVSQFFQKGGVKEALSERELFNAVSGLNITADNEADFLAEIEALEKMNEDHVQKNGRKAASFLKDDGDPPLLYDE

In test [5] the target is T2, Tyrosine-protein kinase Tec (Homo sapiens, UniProt P42680).
T2 sequence (P42680 whole entry): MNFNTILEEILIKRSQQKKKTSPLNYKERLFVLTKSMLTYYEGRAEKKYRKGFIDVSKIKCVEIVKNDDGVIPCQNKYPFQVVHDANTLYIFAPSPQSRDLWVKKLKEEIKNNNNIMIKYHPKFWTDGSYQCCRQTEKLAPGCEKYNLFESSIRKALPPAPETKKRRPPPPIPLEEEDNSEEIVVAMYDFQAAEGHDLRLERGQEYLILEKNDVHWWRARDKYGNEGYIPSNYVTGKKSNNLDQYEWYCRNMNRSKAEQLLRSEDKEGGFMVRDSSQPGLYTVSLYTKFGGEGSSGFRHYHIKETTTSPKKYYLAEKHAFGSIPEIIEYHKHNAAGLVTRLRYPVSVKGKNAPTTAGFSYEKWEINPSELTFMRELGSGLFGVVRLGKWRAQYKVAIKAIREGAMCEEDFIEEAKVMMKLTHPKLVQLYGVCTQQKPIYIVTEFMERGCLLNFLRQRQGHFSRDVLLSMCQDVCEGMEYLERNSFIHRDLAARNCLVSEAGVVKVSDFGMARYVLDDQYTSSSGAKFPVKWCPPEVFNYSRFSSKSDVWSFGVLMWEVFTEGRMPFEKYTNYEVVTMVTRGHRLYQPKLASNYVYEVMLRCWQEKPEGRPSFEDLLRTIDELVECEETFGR

Test [6] has as its target Ephrin type-A receptor 4 (Homo sapiens, UniProt P54764).
The target in test [7] is T3, Ephrin type-B receptor 4 (Homo sapiens, UniProt P54760).
T3 sequence (P54760 whole entry): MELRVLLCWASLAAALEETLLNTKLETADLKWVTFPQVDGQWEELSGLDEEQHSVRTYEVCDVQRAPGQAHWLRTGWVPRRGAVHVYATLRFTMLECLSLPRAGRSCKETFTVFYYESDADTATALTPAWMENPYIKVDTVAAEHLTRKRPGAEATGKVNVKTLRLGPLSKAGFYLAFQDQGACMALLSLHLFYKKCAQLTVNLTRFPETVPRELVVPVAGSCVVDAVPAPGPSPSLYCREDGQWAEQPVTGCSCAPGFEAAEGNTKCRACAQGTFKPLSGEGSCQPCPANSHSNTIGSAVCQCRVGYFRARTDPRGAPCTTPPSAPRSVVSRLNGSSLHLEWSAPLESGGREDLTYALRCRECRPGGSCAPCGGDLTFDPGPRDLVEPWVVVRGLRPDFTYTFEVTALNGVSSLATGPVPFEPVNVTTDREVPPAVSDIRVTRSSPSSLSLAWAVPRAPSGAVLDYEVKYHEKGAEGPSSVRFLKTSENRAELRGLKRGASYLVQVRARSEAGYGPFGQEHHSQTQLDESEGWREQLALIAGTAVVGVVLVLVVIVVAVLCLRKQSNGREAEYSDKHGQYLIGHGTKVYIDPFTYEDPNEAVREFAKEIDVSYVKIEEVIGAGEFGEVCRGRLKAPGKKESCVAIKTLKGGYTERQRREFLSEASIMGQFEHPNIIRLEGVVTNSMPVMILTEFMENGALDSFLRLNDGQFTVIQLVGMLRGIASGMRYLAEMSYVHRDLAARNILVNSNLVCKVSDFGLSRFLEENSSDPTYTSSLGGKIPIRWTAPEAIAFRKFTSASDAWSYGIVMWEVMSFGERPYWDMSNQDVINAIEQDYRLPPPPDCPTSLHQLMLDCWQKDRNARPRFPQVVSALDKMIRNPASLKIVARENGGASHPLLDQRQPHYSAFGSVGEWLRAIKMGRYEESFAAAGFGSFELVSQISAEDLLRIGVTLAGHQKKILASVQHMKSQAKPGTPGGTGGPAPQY

Test [8] addresses RAC-alpha serine/threonine-protein kinase (Homo sapiens, UniProt P31749).
Test [9] deals with Ribosomal protein S6 kinase alpha-5 (Homo sapiens, UniProt O75582).
Test [10] has as its target Casein kinase II subunit alpha (Homo sapiens, UniProt P68400).
The target in test [11] is Tyrosine-protein kinase Srms (Homo sapiens, UniProt Q9H3Y6).

A value given as a limit tells only on which side of the number the result lay.

Sequence of RAC-alpha serine/threonine-protein kinase (P31749 whole entry): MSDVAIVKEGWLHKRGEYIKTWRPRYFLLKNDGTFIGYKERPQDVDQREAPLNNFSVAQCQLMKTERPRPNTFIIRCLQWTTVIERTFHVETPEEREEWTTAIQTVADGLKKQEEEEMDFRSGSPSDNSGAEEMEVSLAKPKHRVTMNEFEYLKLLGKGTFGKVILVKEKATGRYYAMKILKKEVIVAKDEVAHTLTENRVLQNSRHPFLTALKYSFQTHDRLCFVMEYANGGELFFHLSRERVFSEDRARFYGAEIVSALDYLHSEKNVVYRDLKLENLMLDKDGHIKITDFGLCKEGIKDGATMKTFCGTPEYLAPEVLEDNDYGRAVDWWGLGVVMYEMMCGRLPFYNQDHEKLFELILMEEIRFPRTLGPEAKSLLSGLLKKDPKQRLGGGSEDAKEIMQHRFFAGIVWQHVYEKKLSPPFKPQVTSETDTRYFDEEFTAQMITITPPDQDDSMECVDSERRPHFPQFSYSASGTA
Sequence of Calcium/calmodulin-dependent protein kinase type II subunit gamma (Q13555 whole entry): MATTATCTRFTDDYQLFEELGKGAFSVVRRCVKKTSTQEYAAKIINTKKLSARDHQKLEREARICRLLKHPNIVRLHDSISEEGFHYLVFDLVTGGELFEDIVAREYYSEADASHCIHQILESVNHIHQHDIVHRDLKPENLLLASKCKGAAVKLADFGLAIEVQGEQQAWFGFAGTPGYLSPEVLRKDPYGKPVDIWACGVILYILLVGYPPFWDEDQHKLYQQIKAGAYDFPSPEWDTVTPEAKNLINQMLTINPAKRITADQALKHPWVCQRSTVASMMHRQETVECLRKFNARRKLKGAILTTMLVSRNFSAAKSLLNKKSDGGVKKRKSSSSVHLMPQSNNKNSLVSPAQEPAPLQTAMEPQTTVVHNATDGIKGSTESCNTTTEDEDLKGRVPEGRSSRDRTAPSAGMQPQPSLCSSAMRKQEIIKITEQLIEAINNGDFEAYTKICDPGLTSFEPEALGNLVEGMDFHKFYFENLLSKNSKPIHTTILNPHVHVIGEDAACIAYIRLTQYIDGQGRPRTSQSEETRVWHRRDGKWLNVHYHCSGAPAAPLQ
Sequence of Tyrosine-protein kinase Srms (Q9H3Y6 whole entry): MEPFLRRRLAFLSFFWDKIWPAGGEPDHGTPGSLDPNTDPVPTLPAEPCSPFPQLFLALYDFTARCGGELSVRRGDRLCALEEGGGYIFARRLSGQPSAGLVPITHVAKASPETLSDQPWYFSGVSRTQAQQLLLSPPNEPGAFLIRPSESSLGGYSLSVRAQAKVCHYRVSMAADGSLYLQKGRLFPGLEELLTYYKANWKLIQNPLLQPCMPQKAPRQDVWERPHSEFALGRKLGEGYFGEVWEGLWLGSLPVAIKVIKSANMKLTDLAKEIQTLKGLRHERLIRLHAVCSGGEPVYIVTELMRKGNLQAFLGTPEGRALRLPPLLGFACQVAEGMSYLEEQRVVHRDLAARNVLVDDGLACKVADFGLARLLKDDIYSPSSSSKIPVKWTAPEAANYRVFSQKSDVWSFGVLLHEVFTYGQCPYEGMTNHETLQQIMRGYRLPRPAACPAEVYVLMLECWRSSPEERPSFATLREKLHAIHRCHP
Sequence of Mitogen-activated protein kinase 8 (P45983 whole entry): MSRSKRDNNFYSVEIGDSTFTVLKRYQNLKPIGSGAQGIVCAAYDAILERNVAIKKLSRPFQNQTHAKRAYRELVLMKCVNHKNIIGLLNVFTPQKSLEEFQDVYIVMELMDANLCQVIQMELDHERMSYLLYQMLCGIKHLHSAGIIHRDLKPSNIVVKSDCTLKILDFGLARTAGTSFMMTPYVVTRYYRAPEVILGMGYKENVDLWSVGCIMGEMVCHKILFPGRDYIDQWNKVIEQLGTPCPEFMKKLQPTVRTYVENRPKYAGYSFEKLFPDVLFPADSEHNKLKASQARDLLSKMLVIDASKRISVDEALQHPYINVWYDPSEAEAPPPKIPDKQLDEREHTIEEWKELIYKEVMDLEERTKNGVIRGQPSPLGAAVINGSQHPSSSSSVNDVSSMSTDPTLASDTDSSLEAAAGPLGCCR
Sequence of Casein kinase II subunit alpha (P68400 whole entry): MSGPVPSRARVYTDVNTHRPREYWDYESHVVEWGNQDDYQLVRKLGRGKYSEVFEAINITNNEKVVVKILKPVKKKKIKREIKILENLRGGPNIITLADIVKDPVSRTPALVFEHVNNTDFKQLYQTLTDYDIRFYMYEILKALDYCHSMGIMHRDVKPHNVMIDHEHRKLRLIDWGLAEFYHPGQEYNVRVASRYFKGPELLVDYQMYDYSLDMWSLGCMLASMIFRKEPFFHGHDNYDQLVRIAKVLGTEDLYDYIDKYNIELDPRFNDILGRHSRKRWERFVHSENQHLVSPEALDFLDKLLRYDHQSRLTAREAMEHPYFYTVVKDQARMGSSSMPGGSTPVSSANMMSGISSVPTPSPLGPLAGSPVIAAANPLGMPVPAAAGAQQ
Sequence of TGF-beta receptor type-2 (P37173 whole entry): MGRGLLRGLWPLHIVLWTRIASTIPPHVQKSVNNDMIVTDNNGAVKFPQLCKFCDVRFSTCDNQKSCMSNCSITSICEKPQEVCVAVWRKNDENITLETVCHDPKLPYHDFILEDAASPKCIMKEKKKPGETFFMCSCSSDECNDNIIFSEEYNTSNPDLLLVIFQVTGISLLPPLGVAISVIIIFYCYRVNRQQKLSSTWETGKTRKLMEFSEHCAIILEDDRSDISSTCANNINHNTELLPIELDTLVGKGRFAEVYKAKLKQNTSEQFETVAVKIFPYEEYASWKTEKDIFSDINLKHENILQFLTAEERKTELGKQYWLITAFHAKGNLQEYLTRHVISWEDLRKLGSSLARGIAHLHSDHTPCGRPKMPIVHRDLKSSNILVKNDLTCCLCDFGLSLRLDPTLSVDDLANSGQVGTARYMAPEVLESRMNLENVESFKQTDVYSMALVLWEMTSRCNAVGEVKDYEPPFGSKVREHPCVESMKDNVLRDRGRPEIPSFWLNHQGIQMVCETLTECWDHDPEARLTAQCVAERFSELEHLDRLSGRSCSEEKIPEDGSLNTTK
Sequence of Ribosomal protein S6 kinase alpha-5 (O75582 whole entry): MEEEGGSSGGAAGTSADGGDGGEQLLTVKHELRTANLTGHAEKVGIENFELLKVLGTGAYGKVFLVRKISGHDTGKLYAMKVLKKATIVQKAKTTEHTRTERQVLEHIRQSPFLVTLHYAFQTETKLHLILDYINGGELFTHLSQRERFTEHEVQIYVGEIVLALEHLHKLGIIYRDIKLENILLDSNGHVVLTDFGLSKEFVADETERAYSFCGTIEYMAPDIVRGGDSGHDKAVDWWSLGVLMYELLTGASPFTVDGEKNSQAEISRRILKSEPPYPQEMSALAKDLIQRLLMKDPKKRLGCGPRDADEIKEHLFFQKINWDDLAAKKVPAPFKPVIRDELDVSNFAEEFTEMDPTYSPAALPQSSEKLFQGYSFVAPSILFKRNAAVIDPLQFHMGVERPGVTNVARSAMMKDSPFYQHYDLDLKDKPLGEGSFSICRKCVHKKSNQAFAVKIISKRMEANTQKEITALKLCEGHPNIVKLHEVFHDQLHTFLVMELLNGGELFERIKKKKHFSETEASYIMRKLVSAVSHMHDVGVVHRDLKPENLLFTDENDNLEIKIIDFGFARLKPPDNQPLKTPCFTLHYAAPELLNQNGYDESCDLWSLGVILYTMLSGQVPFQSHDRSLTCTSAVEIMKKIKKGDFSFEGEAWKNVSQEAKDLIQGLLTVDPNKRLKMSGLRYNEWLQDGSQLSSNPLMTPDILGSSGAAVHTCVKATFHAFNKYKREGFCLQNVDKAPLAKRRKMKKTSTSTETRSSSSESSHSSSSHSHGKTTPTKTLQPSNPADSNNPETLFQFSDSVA
Sequence of Ephrin type-A receptor 4 (P54764 whole entry): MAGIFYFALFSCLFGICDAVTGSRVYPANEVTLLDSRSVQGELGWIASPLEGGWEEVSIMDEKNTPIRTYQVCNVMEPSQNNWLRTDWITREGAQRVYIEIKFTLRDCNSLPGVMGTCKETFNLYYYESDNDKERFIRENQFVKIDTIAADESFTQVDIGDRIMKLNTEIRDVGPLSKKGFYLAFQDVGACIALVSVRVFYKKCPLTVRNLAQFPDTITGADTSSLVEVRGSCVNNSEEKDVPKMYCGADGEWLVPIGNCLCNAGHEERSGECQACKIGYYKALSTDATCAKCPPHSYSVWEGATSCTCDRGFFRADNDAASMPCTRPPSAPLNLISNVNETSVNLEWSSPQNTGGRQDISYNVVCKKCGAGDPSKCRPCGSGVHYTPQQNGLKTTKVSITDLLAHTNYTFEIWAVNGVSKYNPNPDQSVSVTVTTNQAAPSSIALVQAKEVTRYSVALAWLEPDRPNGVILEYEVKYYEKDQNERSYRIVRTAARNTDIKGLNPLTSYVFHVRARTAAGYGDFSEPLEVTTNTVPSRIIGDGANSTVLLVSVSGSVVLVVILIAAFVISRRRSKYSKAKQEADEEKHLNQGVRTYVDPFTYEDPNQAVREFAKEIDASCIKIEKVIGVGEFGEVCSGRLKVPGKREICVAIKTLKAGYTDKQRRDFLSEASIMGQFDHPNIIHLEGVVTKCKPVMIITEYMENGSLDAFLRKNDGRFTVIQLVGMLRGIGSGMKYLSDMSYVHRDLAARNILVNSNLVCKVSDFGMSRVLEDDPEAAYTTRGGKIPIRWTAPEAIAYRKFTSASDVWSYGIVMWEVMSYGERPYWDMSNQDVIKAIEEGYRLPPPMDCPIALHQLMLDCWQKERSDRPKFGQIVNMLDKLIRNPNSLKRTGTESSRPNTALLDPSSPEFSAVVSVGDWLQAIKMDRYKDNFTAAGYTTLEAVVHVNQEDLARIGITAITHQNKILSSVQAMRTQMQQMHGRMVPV

Broadly, the Kd is the free concentration of one partner at which half of the binding sites on the other are occupied at equilibrium, for simple one-to-one binding. Consider `Oc1ccc(-c2nc(-c3ccncc3)c(-c3ccc(F)cc3)[nH]2)cc1` [SB-202190], for which the Kd in test [1] was above 10 µM; in test [2], above 10 µM; in test [3], 2.4 µM; in test [4], above 10 µM; in test [5], above 10 µM; in [6] it was above 10 µM. In addition, the Kd in test [7], in test [8], in [9], in test [10] and in test [11] was above 10 µM throughout.
For `COCC(=O)NC/C=C/c1ccc2ncnc(Nc3ccc(Oc4ccc(C)nc4)c(C)c3)c2c1` [CP-724714], the Kd in [1], in [2], in test [3], in test [4], in [5] and in test [6] was above 10 µM in each case. Moreover, the Kd in test [7], in [8], in test [9], in test [10] and in test [11] was above 10 µM in each case.
Turning to `Nc1nc(Nc2ccc(S(N)(=O)=O)cc2)nn1C(=O)c1c(F)cccc1F` [JNJ-7706621], the Kd in test [1] was above 10 µM; in test [2], above 10 µM; in test [4], 1.2 µM; in [6], above 10 µM; in test [7], above 10 µM; in test [8] it was above 10 µM. The Kd in [9], in test [10] and in [11] was above 10 µM each time.
In the case of `NC(=O)c1ccc(-c2nc(-c3ccc4c(c3)OCO4)c(-c3ccccn3)[nH]2)cc1` [SB-431542], the Kd in [2], in test [3], in test [4], in test [5], in test [6] and in test [7] was above 10 µM each time. The Kd in test [8], in [9], in test [10] and in test [11] was above 10 µM throughout.
On to `CCOc1cc2ncc(C#N)c(Nc3ccc(F)c(Cl)c3)c2cc1NC(=O)/C=C/CN(C)C` [PELITINIB], for which the Kd in [1], in [2], in [3], in [4], in test [5] and in test [6] was above 10 µM each time. Besides, the Kd in [7] was 2.8 µM; in test [8], above 10 µM; in test [9] it was above 10 µM; in [10], above 10 µM; in test [11], above 10 µM.
